# Experimental data: ChEMBL document CHEMBL5725283, “2-pyridinecarboxamide derivatives, compositions containing such compounds, and methods of treatment” (2016)
# Experiment: Glucokinase Activity Assay: Recombinant human liver glucokinase was expressed as a FLAG fusion protein in E. coli, and purified on ANTIFLAG M2 AFFINITY GEL (Sigma). The assay was carried out at 30° C. in a 96-well plate. In the plate was distributed 69 μl each of assay buffer (25 mM Hepes Buffer: pH=7.2, 2 mM MgCl2, 1 mM ATP, 0.5 mM TNAD, 1 mM dithiothreitol), to which was added 1 μl of a DMSO solution of the compound or DMSO as control. Then, 20 μl of pre-ice-cooled enzyme mixture (FLAG-GK, 20 U/ml G6PDH) was distributed thereto, to which was added 10 μl of 25 mM glucose as substrate to initiate the reaction (final glucose concentration=2.5 mM). After starting the reaction, the absorbance at 405 nm was measured every 30 seconds for 10 minutes to evaluate the compound based on the initial increase for 5 minutes. FLAG-GK was added so that the increase of absorbance after 5 minutes fell between 0.05 to 0.1 in the presence of 1% DMSO.
row,EC50 [nM],Compound
1,137,Cn1cnnc1Sc1ccc(Sc2ccc(F)cc2)c(C(=O)Nc2nc(CC(=O)O)cs2)n1
2,13.4,CCOC(=O)CSc1cnc(NC(=O)c2nc(Sc3nncn3C)ccc2Sc2ccc(F)cc2)s1
3,49.3,CCOC(=O)Cc1csc(NC(=O)c2nc(Sc3nncn3C)ccc2Sc2ccc(F)cc2)n1
